# Reference: US20250186391A1, “ORAL COMPLEMENT FACTOR D INHIBITORS” (BioCryst Pharmaceuticals, Inc., priority 2019, published 2025)
# Target: Factor D (Homo sapiens (Human), UniProt P00746)
# Test: Factor D esterolytic assay
# Assay type: biochemical
# Conditions: Z-Lys-SBzl substrate, 100 mM HEPES, 500 mM NaCl, pH 7.5, 10% DMSO; tested a minimum of three times; read-out: Measured Ki (IC50) Value for Compounds: IC50
# Procedure, shortened: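 Buffer was 100 mM HEPES, 500 mM NaCl, pH 7.5 with 10% DMSO. Compound and Factor D were combined, then Z-Lys-SBzl (1.29 mM) was added either at once or following room-temperature incubation. Rates came from DTNB colour at 405 nm minus 690 nm over 600 s, with percent inhibition giving IC50 over at least three tests.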
# Factor D, sequence (P00746 26-253): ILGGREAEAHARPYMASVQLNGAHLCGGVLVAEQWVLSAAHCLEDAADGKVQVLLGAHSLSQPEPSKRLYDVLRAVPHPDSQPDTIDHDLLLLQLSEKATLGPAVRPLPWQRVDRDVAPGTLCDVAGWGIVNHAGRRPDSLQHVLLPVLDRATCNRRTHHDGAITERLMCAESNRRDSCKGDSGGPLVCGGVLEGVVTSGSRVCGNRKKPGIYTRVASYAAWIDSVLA
row,IC50 [nM],Compound
1,< 1000,"NCc1cccc(-c2cc(N)c3oc(C(=O)O)c(COc4ccccc4CC(=O)O)c3c2)c1 [Compound 87c, 7-amino-5-(3-(aminomethyl)phenyl)-3-((2-(carboxymethyl)phenoxy)methyl)benzofuran-2-carboxylic acid]"
2,< 1000,"N#Cc1cccc(CC(=O)O)c1OCc1coc2ccc(-c3cccc(CN)c3)cc12 [Compound 115c, 2-(2-((5-(3-(aminomethyl)phenyl)benzofuran-3-yl)methoxy)-3-cyanophenyl)acetic acid]"
3,< 1000,"NCc1cccc(-c2cc(C3CC3)c3occ(COc4ccccc4CC(=O)O)c3c2)c1 [Compound 120c, 2-(2-((5-(3-(aminomethyl)phenyl)-7-cyclopropylbenzofuran-3-yl)methoxy)phenyl)acetic acid]"
4,< 1000,"COc1ccc(CC(=O)O)c(OCc2c(C(F)F)oc3ccc(-c4cccc(CN)c4)cc23)c1 [Compound 215d, 2-(2-((5-(3-(aminomethyl)phenyl)-2-(difluoromethyl)benzofuran-3-yl)methoxy)-4-methoxyphenyl)acetic acid]"
5,< 1000,"Cc1ccc(CC(=O)O)c(OCc2c(C)oc3ccc(-c4cccc(CN)c4)cc23)c1 [Compound 131c, 2-(2-((5-(3-(aminomethyl)phenyl)-2-methylbenzofuran-3-yl)methoxy)-4-methylphenyl)acetic acid]"
6,< 1000,"CN1CCN(Cc2ccc(-c3cc(-c4cccc(CN)c4)cc4c(COc5ccccc5CC(=O)O)coc34)cc2)CC1 [Compound 116d, 2-(2-((5-(3-(aminomethyl)phenyl)-7-(4-((4-methylpiperazin-1-yl)methyl)phenyl)benzofuran-3-yl)methoxy)phenyl)acetic acid]"
7,< 1000,"NCc1cccc(-c2ccc3cnn(Cc4ccccc4CC(=O)O)c3c2)c1 [Compound 67e, 2-(2-((6-(3-(aminomethyl)phenyl)-1H-indazol-1-yl)methyl)phenyl)acetic acid]"
8,< 1000,"NCc1cccc(-c2ccc3occ(COc4ccccc4C(=O)O)c3c2)c1 [Compound 1f, 2-((5-(3-(aminomethyl)phenyl)benzofuran-3-yl)methoxy)benzoic acid]"
9,< 1000,"COc1cc2occ(COc3ccccc3CC(=O)O)c2cc1-c1cccc(CN)c1 [Compound 69f, 2-(2-((5-(3-(aminomethyl)phenyl)-6-methoxybenzofuran-3-yl)methoxy)phenyl)acetic acid]"
10,< 1000,"NCc1cccc(-c2cc(-c3ccc(F)cc3)c3occ(COc4ccccc4CC(=O)O)c3c2)c1 [Compound 221c, 2-(2-((5-(3-(aminomethyl)phenyl)-7-(4-fluorophenyl)benzofuran-3-yl)methoxy)phenyl)acetic acid]"
11,> 10000,"NCc1cccc(-c2cccc3cc(COc4cccc(CC(=O)O)c4)oc23)c1 [Compound 34c, 2-(3-((7-(3-(aminomethyl)phenyl)benzofuran-2-yl)methoxy)phenyl)acetic acid]"
12,> 10000,"CC(C)n1nc(COc2ccccc2CC(=O)O)c2cc(-c3ccc(CN)cc3)ccc21 [Compound 311c, 2-(2-((5-(4-(aminomethyl)phenyl)-1-isopropyl-1H-indazol-3-yl)methoxy)phenyl)acetic acid]"
13,< 1000,"COc1ccc(CC(=O)O)c(OCc2c(C)oc3ccc(-c4cccc([C@@H](C)N)c4)cc23)c1 [Compound 242b, (R)-2-(2-((5-(3-(1-aminoethyl)phenyl)-2-methylbenzofuran-3-yl)methoxy)-4-methoxyphenyl)acetic acid]"
14,< 1000,"NCc1cccc(-c2ccc3occ(COc4ccc(F)cc4CC(=O)O)c3c2)c1F [Compound 45b, 2-(2-((5-(3-(aminomethyl)-2-fluorophenyl)benzofuran-3-yl)methoxy)-5-fluorophenyl)acetic acid]"
15,< 1000,"Cc1cc2c(o1)c(-c1cccc(CN)c1)cc1c(COc3ccccc3CC(=O)O)coc12 [Compound 283g, 2-(2-((5-(3-(aminomethyl)phenyl)-7-methylbenzo[1,2-b:3,4-b′]difuran-3-yl)methoxy)phenyl)acetic acid]"
16,1000 to 10000,"NCc1cccc(-c2ccc3occ(COc4c(CC(=O)O)cccc4C(N)=O)c3c2)c1 [Compound 114i, 2-(2-((5-(3-(aminomethyl)phenyl)benzofuran-3-yl)methoxy)-3-carbamoylphenyl)acetic acid]"
17,< 1000,"COC(=O)c1cc(-c2cccc(CN)c2)c2oc(COc3ccccc3CC(=O)O)cc2c1 [Compound 23c, 2-(2-((7-(3-(aminomethyl)phenyl)-5-(methoxycarbonyl)benzofuran-2-yl)methoxy)phenyl)acetic acid]"
18,> 10000,"NCc1cccc(-c2cccc3ccc(COc4ccccc4CC(=O)O)cc23)c1 [Compound 99d, 2-(2-((8-(3-(aminomethyl)phenyl)naphthalen-2-yl)methoxy)phenyl)acetic acid]"
19,< 1000,"CC(C)n1nc(COc2ccccc2C(=O)O)c2cc(-c3cccc(CN)c3)ccc21 [Compound 299d, 2-((5-(3-(aminomethyl)phenyl)-1-isopropyl-1H-indazol-3-yl)methoxy)benzoic acid]"
20,< 1000,"NCc1cccc(-c2cccc3cc(COc4ccccc4CC(=O)O)sc23)c1 [Compound 30d, 2-(2-((7-(3-(aminomethyl)phenyl)benzo[b]thiophen-2-yl)methoxy)phenyl)acetic acid]"
21,> 10000,"CC(C)n1nc(COc2ccccc2CC(=O)O)c2cc(-c3cc(CN)cc(OCc4cccnc4)c3)ccc21 [Compound 243h, 2-(2-((5-(3-(aminomethyl)-5-(pyridin-3-ylmethoxy)phenyl)-1-isopropyl-1H-indazol-3-yl)methoxy)phenyl)acetic acid]"
22,< 1000,"NCc1cccc(-c2cc(OC[C@H]3CCCO3)c3occ(COc4ccccc4CC(=O)O)c3c2)c1 [Compound 76i, (R)-2-(2-((5-(3-(aminomethyl)phenyl)-7-((tetrahydrofuran-2-yl)methoxy)benzofuran-3-yl)methoxy)phenyl)acetic acid]"
23,< 1000,"NCc1cccc(-c2ccc3c(c2)c(COc2ccccc2CC(=O)O)nn3C2CC2)c1 [Compound 260c, 2-(2-((5-(3-(aminomethyl)phenyl)-1-cyclopropyl-1H-indazol-3-yl)methoxy)phenyl)acetic acid]"
24,< 1000,"CC(=O)c1oc2ccc(-c3cccc(CN)c3)cc2c1COc1ccccc1CC(=O)O [Compound 141c, 2-(2-((2-acetyl-5-(3-(aminomethyl)phenyl)benzofuran-3-yl)methoxy)phenyl)acetic acid]"
25,< 1000,"NCc1cccc(-c2cc(COc3ccc(F)cc3)c3occ(COc4ccccc4CC(=O)O)c3c2)c1 [Compound 143f, 2-(2-((5-(3-(aminomethyl)phenyl)-7-((4-fluorophenoxy)methyl)benzofuran-3-yl)methoxy)phenyl)acetic acid]"
26,< 1000,"NCc1cc(-c2cc(COc3ccccc3CC(=O)O)cc3cc(COc4ccccc4CC(=O)O)oc23)ccn1 [Compound 27e, 2,2′-((((7-(2-(aminomethyl)pyridin-4-yl)benzofuran-2,5-diyl)bis(methylene))bis(oxy))bis(2,1-phenylene))diacetic acid]"
27,< 1000,"COc1cc(-c2cccc(CN)c2)cc2c(COc3c(C)cccc3CC(=O)O)coc12 [Compound 237c, 2-(2-((5-(3-(aminomethyl)phenyl)-7-methoxybenzofuran-3-yl)methoxy)-3-methylphenyl)acetic acid]"
